Experimental data taken from US11274129B2, “Methods for protein tyrosine phosphorylation profiling with variant SH2 domains” (priority 2016, dated 2022).

Assays:
BT-474 cells = experiment: Cell growth inhibition assay (CellTiter 96 AQueous One Solution Cell Proliferation Assay); assay type: cell-based, human; conditions: single inhibitor at different concentrations (FIG. 11A)
Description: (§1) Cell growth inhibition assays were performed with the CellTiter 96 AQueous One Solution Cell Proliferation Assay (Promega) according to the manufacturer's recommendations.

MDA-MB-231 cells = experiment: as above; assay type: cell-based, human; conditions: single inhibitor at different concentrations (FIG. 11A)
Description: as §1

SK-BR-3 cells = experiment: as above; assay type: cell-based, human; conditions: single inhibitor at different concentrations (FIG. 11A)
Description: as §1

MCF-7 cells = experiment: as above; assay type: cell-based, human; conditions: single inhibitor at different concentrations (FIG. 11A)
Description: as §1

[1] = tested on: pTyr-including peptide found in the sequence of the receptor tyrosine kinase EGFR; experiment: Binding of wild-type and TrM Fyn SH2 domain to EGFR pTyr peptide
From the text: The relative affinity of a variant SH2 domain, including a SH2 Superbinder, can be readily assessed compared to the affinity of the relevant parent SH2 domain, using binding assays known in the art, including as described in Kaneko, T. et al., “SH2 Superbinders act as antagonists of cell signaling”, (2012) Sci. Signal. 5: ra68; and U.S. patent application Ser. No. 14/388,592.

[2] = target: pTyr-including peptide found in the sequence of the receptor tyrosine kinase EGFR (Homo sapiens, UniProt P06241, K204L/S186A/T181V); conditions: read-out: equilibrium dissociation constant (Kd); cited from earlier work
[3] = target: pTyr-including peptide found in the sequence of the receptor tyrosine kinase EGFR (Homo sapiens, UniProt P06241); conditions: cited from earlier work
[4] = tested on: pTyr-including peptides from pervanadate-treated Jurkat cells; experiment: Enrichment of pTyr-including peptides from pervanadate-treated Jurkat cells by affinity reagents, 1D LC-MS/MS; parameters: species or system human; conditions: 3 mg Jurkat peptides
Description: Experiments were conducted to determine the relative efficacy of the variant Src SH2 domains and commonly used anti-pTyr antibodies as affinity reagents for pTyr-including peptides from biological samples. His6/GST-tagged TrM Src SH2 domain (SEQ ID NO: 11) and His6-tagged QuadM Src SH2 domain (SEQ ID NO: 13), as well as anti-pTyr antibodies, were prepared in functionally-equivalent molar amounts by using half the molar amount of the antibodies relative to the SH2 domain variants given that each antibody molecule has two binding sites for its antigen.
The first experiment tested the relative ability of the following affinity reagents to extract pTyr-including peptides from a peptide mixture prepared from Jurkat cells: a His6/GST-tagged TrM Src SH2 (SEQ ID NO: 11), a His6-tagged QuadM Src SH2 (SEQ ID NO: 13), the anti-pTyr antibody 4G10 (agarose conjugate, obtained from Millipore), and a mixture of commercially-available anti-pTyr antibodies. […] The two SH2 affinity reagents were also tested at a 30× amount; the antibodies were not tested at a 30× amount due to the prohibitive cost of doing so. The purified SH2 affinity reagents were prepared as described in Example 1. The antibody mixture contained 4G10 (as above), PY99 (obtained from Santa Cruz Biotechnology), and P-Tyr-100 (slurry of PTMScan® Phospho-Tyrosine Mouse mAb, obtained from Cell Signaling Technology). Since the concentration of P-Tyr-100 is unknown, the amount was used as recommended by the vendor (i.e., 4 μL for 1 mg peptide digest).
FIG. 2A presents a schematic of the experimental design. Each amount of His6-tagged SH2 domain variant or antibody was subjected to a binding experiment with 3 mg of a peptide mixture prepared from pervanadate-treated Jurkat cells.
Jurkat cells (obtained from ATCC) were cultured in a humidified atmosphere of 5% CO2 at 37° C. in Roswell Park Memorial Institute 1640 medium (RPMI-1640) supplemented with 10% bovine serum and 100 U/mL of streptomycin and penicillin.
The cells were again collected by centrifugation. The cell pellets were gently homogenized in an ice-cold lysis buffer containing 8 M urea, 50 mM tris(hydroxymethyl)aminomethane (Tris)-HCl (pH 7.4), 2% protease inhibitor cocktail (v/v, obtained from Sigma-Aldrich), 1% Triton X-100 (v/v), 1 mM NaF, and 1 mM Na3VO4, followed by sonication at 400 W for 120 s. After centrifugation at 25,000 g for 1 h, proteins were precipitated in ice-cold acetone/ethanol/acetic acid (50/50/0.1, V/V/V) solution. Subsequently, the proteins were diluted in reducing buffer containing 100 mM triethylammonium bicarbonate (TEAB) buffer (pH 8.2) and 8 M urea, and the final protein concentration was determined by Bradford assay. The protein suspension was reduced in 10 mM dithiothreitol (DTT) at 37° C. for 2 h, and it was then alkylated in 20 mM iodoacetamide (IAA) in darkness at room temperature for another 30 min. Trypsin digestion was performed at 37° C. overnight with an enzyme-to-protein ratio of 1/25 (w/w). The resulting peptide mixture was stored at −80° C. for further analysis.
Desalted Jurkat peptides (30 mg) were dissolved in ice-cold immunoaffinity purification (IAP) buffer and then split into 10 aliquots with 3 mg of Jurkat peptides each. Binding experiments were performed with the amounts of antibody (1×, 5×) or SH2 domain variant (1×, 5×, 30×) set out in Table 1 and FIG. 2A.
For antibody-based enrichment, 4G10 or the antibody mixture was incubated with the sample at 4° C. overnight while rotating. The beads were washed three times with ice-cold IAP buffer and twice with ice-cold water. To release the bound peptides, the beads were eluted twice with 200 μL 0.15% trifluoroacetic acid (TFA) for 15 min at room temperature.
For SH2-based enrichment, Ni-NTA beads containing the purified SH2 proteins were washed extensively in twenty column volumes of PBS buffer (pH 7.0) containing 20 mM imidazole. […] The washed beads were incubated with the peptide mixture at 4° C. overnight while rotating. […]

Question: For `CCN1CCN(Cc2ccc(C(=O)Nc3ccc(C)c(Oc4ccc5c(c4)CC(=O)N5)c3)cc2C(F)(F)F)CC1` [DDR1-IN-1], which “proliferation relative to no drug exposure” value (BT-474 cells) is on record?
Answer: neither inhibitor had an effect

Question: What about the “proliferation relative to no drug exposure” value (MDA-MB-231 cells) of the same molecule?
Answer: neither inhibitor had an effect

Question: What about the “proliferation relative to no drug exposure” value (SK-BR-3 cells) of the same molecule?
Answer: neither inhibitor had an effect

Question: With `CNC(=O)c1c(F)cccc1Nc1nc(Nc2cc3c(cc2OC)CCN3C(=O)CN(C)C)nc2[nH]ccc12` [GSK1838705] as the molecule, how does the “proliferation relative to no drug exposure” value (BT-474 cells) read?
Answer: neither inhibitor had an effect

Question: What about the “proliferation relative to no drug exposure” value (MCF-7 cells) of the same molecule?
Answer: inhibited the proliferation of MCF-7 in a dose-dependent manner

Question: What about the “proliferation relative to no drug exposure” value (MDA-MB-231 cells) of the same molecule?
Answer: neither inhibitor had an effect

Question: What about the “proliferation relative to no drug exposure” value (SK-BR-3 cells) of the same molecule?
Answer: neither inhibitor had an effect

Question: Which results are given for `CS(=O)(=O)CCNCc1ccc(-c2ccc3ncnc(Nc4ccc(OCc5cccc(F)c5)c(Cl)c4)c3c2)o1` [lapatinib]?
Answer: proliferation relative to no drug exposure (BT-474 cells): sensitive; proliferation relative to no drug exposure (MCF-7 cells): insensitive; proliferation relative to no drug exposure (MDA-MB-231 cells): insensitive; proliferation relative to no drug exposure (SK-BR-3 cells): sensitive

B1: TrM Fyn SH2 domain: variant human Fyn SH2 domain with Thr181Val, Ser186Ala and Lys204Leu (protein)
chain: APVDSIQAEEWYFGKLGRKDAERQLLSFGNPRGTFLIRESETVKGAYALSIRDWDDMKGDHVKHYLIRKLDNGGYYITTRAQFETLQQLVQHYSERAAGLCCRLVVPCHKG
modifications: SH2 protein domain; TrM human Fyn SH2 domain
notes: variant human Fyn SH2 domain with Thr181Val, Ser186Ala and Lys204Leu
Question: With B1 as the molecule, how does the “fold tighter binding than wild-type Fyn SH2 domain” value [1] read?
Answer: around 380 fold

Question: And the Kd [2]?
Answer: 0.0097 µM

B2: wild-type Fyn SH2 domain: wild-type human Fyn SH2 domain (protein)
chain: APVDSIQAEEWYFGKLGRKDAERQLLSFGNPRGTFLIRESETTKGAYSLSIRDWDDMKGDHVKHYKIRKLDNGGYYITTRAQFETLQQLVQHYSERAAGLCCRLVVPCHKG
modifications: SH2 protein domain; Wild-type human Fyn SH2 domain
Question: Which Kd [3] does the source give for B2 here?
Answer: 3.7 µM

B3: QuadM Src SH2: TrM human Src SH2 domain variant with additional mutation Thr218Trp in its specificity-binding pocket; His6-tagged form SEQ ID NO: 13 (protein)
chain: DSIQAEEWYFGKITRRESERLLLNAENPRGTFLVRESETVKGAYALSVSDFDNAKGLNVKHYLIRKLDSGGFYIWSRTQFNSLQQLVAYYSKHADGLCHRLTTVCPTSK
modifications: SH2 protein domain; QuadM human Src SH2 domain
Question: With B3 as the molecule, how does the “Number of pTyr sites identified” value ([4]; 0.375 nmol (1x) pTyr-binding sites) read?
Answer: 679

Question: What about the “Number of pTyr sites identified” value ([4]; 1.875 nmol (5x) pTyr-binding sites) of the same molecule?
Answer: 938

Question: What about the “Number of pTyr sites identified” value ([4]; 11.25 nmol (30x) pTyr-binding sites) of the same molecule?
Answer: 1186
